For 28 compounds, IC50 results are on record in US20070004763A1, “AMINOQUINOLINE AND AMINOQUINAZOLINE KINASE MODULATORS” (priority 2005, published 2007).

For this assay, the target named is T1, TrkB (Homo sapiens, UniProt Q16620).
T1 construct: purchased Upstate 14-507M
Description: Trk B Fluorescence Polarization Kinase Assay. It counts as biochemical. The settings on record: 150 uM ATP, 50 nM TrkB; uncertainty ±10%. As to the method:
The compounds of the present invention are also specific inhibitors of TrkB. Selection of preferred compounds of Formula I for use as TrkB inhibitors was performed in the following manner. The TrkB assay utilized the fluorescein-labeled phosphopeptide and the anti-phosphotyrosine antibody included in the Panvera Phospho-Tyrosine Kinase Kit (Green) supplied by Invitrogen. When TrkB phosphorylated poly Glu4Tyr, the fluorescein-labeled phosphopeptide was displaced from the anti-phosphotyrosine antibody by the phosphorylated poly Glu4Tyr, thus decreasing the FP value. The TrkB kinase reaction was incubated at room temperature for 30 minutes under the following conditions: 50 nM TrkB (Upstate, catalog #14-507M), 20 ug/mL poly Glu4Tyr, 150 uM ATP, 5 mM MgCl2, 1% compound in DMSO. The kinase reaction was stopped with the addition of EDTA. The fluorescein-labeled phosphopeptide and the anti-phosphotyrosine antibody were added and incubated for 30 minutes at room temperature. Data points were an average of triplicate samples. Inhibition and IC50 data analysis were done with GraphPad Prism using a non-linear regression fit with a multiparamater, sigmoidal dose-response (variable slope) equation.
(In fluorescence polarisation assays a small probe gives low polarisation when free and higher when bound to something large.)

By IC50 is commonly meant the concentration that inhibits the measured activity by half. A high value points to a need for much substance.

T1 sequence (Q16620 526-822 limits assumed): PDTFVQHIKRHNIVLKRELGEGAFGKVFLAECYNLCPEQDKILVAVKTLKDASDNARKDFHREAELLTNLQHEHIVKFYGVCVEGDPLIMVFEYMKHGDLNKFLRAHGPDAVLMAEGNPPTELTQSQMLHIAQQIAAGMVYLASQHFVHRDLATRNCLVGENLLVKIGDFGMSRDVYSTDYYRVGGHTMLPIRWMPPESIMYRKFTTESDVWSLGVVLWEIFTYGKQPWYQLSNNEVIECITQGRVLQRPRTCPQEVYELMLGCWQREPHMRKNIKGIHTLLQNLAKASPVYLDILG

Take `COc1cc2ncnc(N3CCC(OC(=O)Nc4ccc(C(C)C)cc4)CC3)c2cc1OC` [Compound 1, (4-Isopropyl-phenyl)-carbamic acid 1-(6,7-dimethoxy-quinazolin-4-yl)-piperidin-4-yl ester]: the IC50 stood at 5.72 µM.

The compound `COc1cc2ncnc(N3CCC(OC(=O)Nc4ccc(C(C)C)cc4)C3)c2cc1OC` (stereo not shown) [Compound 2, (4-Isopropyl-phenyl)-carbamic acid 1-(6,7-dimethoxy-quinazolin-4-yl)-pyrrolidin-3-yl ester] showed a half-inhibitory concentration (IC50) of 3.7 µM.

`COc1cc2ncnc(N3CCC(OC(=O)Nc4ccc(OC(C)C)cc4)CC3)c2cc1OC` [Compound 3, (4-Isopropoxy-phenyl)-carbamic acid 1-(6,7-dimethoxy-quinazolin-4-yl)-piperidin-4-yl ester] had an IC50 of 5.8 µM.

As for `COc1cc2ncnc(N3CCCC(COC(=O)Nc4ccc(C(C)C)cc4)C3)c2cc1OC` (stereo not shown) [Compound 4], the IC50 was found to be 8.4 µM.

Compound `COc1cc2ncnc(N3CCC(CC(=O)Nc4ccc(C(C)C)cc4)CC3)c2cc1OC` [Compound 5, 2-[1-(6,7-Dimethoxy-quinazolin-4-yl)-piperidin-4-yl]-N-(4-isopropyl-phenyl)-acetamide] returned a 50% inhibitory concentration (IC50) of 2.4 µM.

Take `COc1cc2ncnc(N3CCC(CC(=O)Nc4ccc(C(C)C)cc4)C3)c2cc1OC` (stereo not shown) [Compound 6, 2-[11-(6,7-Dimethoxy-quinazolin-4-yl)-pyrrolidin-3-yl]-N-(4-isopropyl-phenyl)-acetamide]: the IC50 worked out at 0.1 µM.

Turning to `COc1cc2ncnc(N3CCC(NC(=O)Nc4ccc(OC(C)C)cc4)C3)c2cc1OC` (stereo not shown) [Compound 8, 1-[1-(6,7-Dimethoxy-quinazolin-4-yl)-pyrrolidin-3-yl]-3-(4-isopropoxy-phenyl)-urea], it took 3.65 µM to reach half-maximal inhibition (IC50).

Consider `COc1cc2ncnc(N3CCCC3COC(=O)Nc3ccc(C(C)C)cc3)c2cc1OC` (stereo not shown) [Compound 9], for which 0.2 µM corresponded to half-maximal inhibition (IC50).

Regarding `CC(C)c1ccc(NC(=O)OC2CCN(c3ccnc4ccccc34)CC2)cc1` [Compound 10], the IC50 worked out at 6.5 µM.

Consider `COc1cc2ncnc(N3CCC(OC(=O)Nc4ccc(OC5CCC5)nc4)CC3)c2cc1OC` [Compound 11, (6-Cyclobutoxy-pyridin-3-yl)-carbamic acid 1-(6,7-dimethoxy-quinazolin-4-yl)-piperidin-4-yl ester], for which the concentration for half-maximal inhibition (IC50) was determined as 8.6 µM.

As for `COc1cc2ncnc(N3CCC(OC(=O)Nc4ccc(OC5CCC5)nc4)C3)c2cc1OC` (stereo not shown) [Compound 12, (6-Cyclobutoxy-pyridin-3-yl)-carbamic acid 1-(6,7-dimethoxy-quinazolin-4-yl)-pyrrolidin-3-yl ester], half-maximal inhibition (IC50) was put at 21.7 µM.

`COc1cc2ncnc(N3CCC(C(=O)Nc4ccc(C(C)C)cc4)CC3)c2cc1OC` [Compound 13, 1-(6,7-Dimethoxy-quinazolin-4-yl)-piperidine-4-carboxylic acid (4-isopropyl-phenyl)-amide] yielded a concentration for half-maximal inhibition (IC50) of 0.16 µM.

Compound `CC(C)c1ccc(NC(=O)OC2CCN(c3ncnc4ccc(C#CCO)cc34)C2)cc1` (stereo not shown) [Compound 14, (4-Isopropyl-phenyl)-carbamic acid 1-[6-(3-hydroxy-prop-1-ynyl)-quinazolin-4-yl]-pyrrolidin-3-yl ester] returned an IC50 of 0.4 µM.

In turn, `COc1cc2ncnc(N3CCC(OC(=O)Nc4ccc(OC(C)C)cc4)C3)c2cc1OC` (stereo not shown) [Compound 15, (4-Isopropoxy-phenyl)-carbamic acid 1-(6,7-dimethoxy-quinazolin-4-yl)-pyrrolidin-3-yl ester] had a half-maximal inhibitory concentration (IC50) of 12.5 µM.

For the compound `CC(C)c1ccc(NC(=O)NC2CCN(c3ncnc4ccccc34)C2)cc1` (stereo not shown) [Compound 16, 1-(4-Isopropyl-phenyl)-3-(1-quinazolin-4-yl-pyrrolidin-3-yl) urea], inhibition was half-maximal at 2.4 µM (IC50).

As to `CCN(CC)CC#Cc1ccc2ncnc(N3CCC(OC(=O)Nc4ccc(C(C)C)cc4)C3)c2c1` (stereo not shown) [Compound 17, (4-Isopropyl-phenyl)-3-carbamic acid 1-[6-(3-diethylamino-prop-1-ynyl)-quinazolin-4-yl]-pyrrolidin-3-yl ester], half-maximal inhibition (IC50) was put at 3.6 µM.

Take `COc1cc2ncnc(N3CCC(CNC(=O)Nc4ccc(C(C)C)cc4)CC3)c2cc1OC` [Compound 18, 1-[1-(6,7-Dimethoxy-quinazolin-4-yl)-piperidin-4-ylmethyl]-3-(4-isopropyl-phenyl)-urea]: the IC50 was found to be 0.5 µM.

Turning to `CC(C)c1ccc(NC(=O)OC2CCN(c3ncnc4ccc(I)cc34)C2)cc1` (stereo not shown) [Compound 20, (4-Isopropyl-phenyl)-carbamic acid 1-(6-iodo-quinazolin-4-yl)-pyrrolidin-3-yl ester], the 50% inhibitory concentration (IC50) was 13.1 µM.

The compound `COc1cc2ncnc(N3CCC(NC(=O)Cc4ccc(C(C)C)cc4)CC3)c2cc1OC` [Compound 21, N-[1-(6,7-Dimethoxy-quinazolin-4-yl)-piperidin-4-yl]-2-(4-isopropyl-phenyl)-acetamide] registered a half-maximal inhibitory concentration (IC50) of 11.2 µM.

Compound `COc1cc2ncnc(N3CCC(COC(=O)Nc4ccc(C(C)C)cc4)CC3)c2cc1OC` [Compound 22, (4-Isopropyl-phenyl)-carbamic acid 1-(6,7-dimethoxy-quinazolin-4-yl)-piperidin-4-ylmethyl ester] registered a half-maximal inhibitory concentration (IC50) of 0.8 µM.

In turn, `COc1cc2ncnc(N3CCC(C(=O)Nc4ccc(OC(C)C)cc4)CC3)c2cc1OC` [Compound 23, 1-(6,7-Dimethoxy-quinazolin-4-yl)-piperidine-4-carboxylic acid (4-isopropoxy-phenyl)-amide] showed an IC50 of 0.55 µM.

Regarding `CC(C)c1ccc(NC(=O)OC2CCN(c3ncnc4ccccc34)C2)cc1` (stereo not shown) [Compound 24, (4-Isopropyl-phenyl)-carbamic acid 1-quinazolin-4-yl-pyrrolidin-3-yl ester], the half-maximal inhibitory concentration (IC50) turned out to be 5.5 µM.

In turn, `COc1cc2ncc(C#N)c(N3CCC(NC(=O)Nc4ccc(C(C)C)cc4)C3)c2cc1OC` (stereo not shown) [Compound 26, 1-[1-(3-Cyano-6,7-dimethoxy-quinolin-4-yl)-pyrrolidin-3-yl]-3-(4-isopropyl-phenyl)-urea] gave an IC50 of 10.9 µM.

The compound `CC(C)c1ccc(NC(=O)NC2CCN(c3ccnc4ccccc34)C2)cc1` (stereo not shown) [Compound 27, (4-Isopropyl-phenyl)-3-(1-quinolin-4-yl)-pyrrolidin-3-yl-urea] displayed a concentration for half-maximal inhibition (IC50) of 7.7 µM.

For the compound `COc1cc2ncnc(N3CCCC(NC(=O)Nc4ccc(C(C)C)cc4)C3)c2cc1OC` (stereo not shown) [Compound 28, 1-[1-(6,7-Dimethoxy-quinazolin-4-yl)-piperidin-3-yl]-3-(4-isopropyl-phenyl)-urea], it took 0.3 µM to reach half-maximal inhibition (IC50).

With `COc1cc2ncc(C#N)c(N3CCC(NC(=O)Nc4ccc(OC(C)C)cc4)C3)c2cc1OC` (stereo not shown) [Compound 29, 1-[1-(3-Cyano-6,7-dimethoxy-quinolin-4-yl)-pyrrolidin-3-yl]-3-(4-isopropoxy-phenyl)-urea], the IC50 amounted to 10.3 µM.

`COc1cc2ncnc(N3CCCC(OC(=O)Nc4ccc(C(C)C)cc4)C3)c2cc1OC` (stereo not shown) [Compound 31, (4-Isopropyl-phenyl)-carbamic acid 1-[1-(6,7-dimethoxy-quinazolin-4-yl)-piperidin-3-yl]ester] showed an IC50 of 0.2 µM.

The compound `COc1cc2ncc(C#N)c(N3CCC(OC(=O)Nc4ccc(OC(C)C)cc4)C3)c2cc1OC` (stereo not shown) [Compound 32, (4-Isopropoxy-phenyl)-carbamic acid 1-(3-cyano-6,7-dimethoxy-quinolin-4-yl)-pyrrolidin-3-yl ester] showed an IC50 of 5.3 µM.
